Data as given in ChEMBL document CHEMBL4354878, “Structure-Based Bioisosterism Yields HIV-1 NNRTIs with Improved Drug-Resistance Profiles and Favorable Pharmacokinetic Properties” (J Med Chem, 2020).
Values after ≈ are worked out from the molar mass of the structure shown.

Assays:
[1] = system: Human immunodeficiency virus 1; assay: Antiviral activity against HIV1 RES056 infected in human MT4 cells assessed as protection against virus-induced cytopathic effect incubated for 5 days by MTT assay; format: functional, organism-based; details: Human immunodeficiency virus 1, RES056, MT4, 120 h
[2] = system: Human immunodeficiency virus 1; assay: Antiviral activity against HIV1 3B infected in human MT4 cells assessed as protection against virus-induced cytopathic effect incubated for 5 days by MTT assay; format: functional, organism-based; details: Human immunodeficiency virus 1, 3B, MT4, 120 h
[3] = system: MT4; assay: Cytotoxicity against human MT4 cells assessed as reduction in cell viability incubated for 5 days by MTT assay; format: functional; details: MT4, 120 h
[4] = Selectivity index, ratio of CC50 for human MT4 cells to EC50 for antiviral activity against HIV1 3B infected in human MT4 cells
[5] = Selectivity index, ratio of CC50 for human MT4 cells to EC50 for antiviral activity against HIV1 RES056 infected in human MT4 cells
[6] = system: Human immunodeficiency virus 1; assay: Antiviral activity against HIV1 expressing RT L100I mutant infected in human MT4 cells assessed as protection against virus-induced cytopathic effect incubated for 5 days by MTT assay; format: functional, organism-based; details: Human immunodeficiency virus 1, MT4, 120 h
[7] = system: Human immunodeficiency virus 1; assay: Antiviral activity against HIV1 expressing RT K103N mutant infected in human MT4 cells assessed as protection against virus-induced cytopathic effect incubated for 5 days by MTT assay; format: functional, organism-based; details: Human immunodeficiency virus 1, MT4, 120 h
[8] = system: Human immunodeficiency virus 1; assay: Antiviral activity against HIV1 expressing RT Y181C mutant infected in human MT4 cells assessed as protection against virus-induced cytopathic effect incubated for 5 days by MTT assay; format: functional, organism-based; details: Human immunodeficiency virus 1, MT4, 120 h
[9] = system: Human immunodeficiency virus 1; assay: Antiviral activity against HIV1 expressing RT Y188L mutant infected in human MT4 cells assessed as protection against virus-induced cytopathic effect incubated for 5 days by MTT assay; format: functional, organism-based; details: Human immunodeficiency virus 1, MT4, 120 h
[10] = system: Human immunodeficiency virus 1; assay: Antiviral activity against HIV1 expressing RT E138K mutant infected in human MT4 cells assessed as protection against virus-induced cytopathic effect incubated for 5 days by MTT assay; format: functional, organism-based; details: Human immunodeficiency virus 1, MT4, 120 h
[11] = system: Human immunodeficiency virus 1; format: functional, organism-based; details: Human immunodeficiency virus 1, MT4, 120 h
[12] = system: Human immunodeficiency virus 1; assay: Antiviral activity against HIV1 3B infected in human MT4 cells grown under 30 passages in absence of test compound assessed as protection against virus-induced cytopathic effect incubated for 5 days by MTT assay; format: functional, organism-based; details: Human immunodeficiency virus 1, 3B, MT4, 120 h
[13] = system: Human immunodeficiency virus 1; assay: Antiviral activity against HIV1 3B infected in human MT4 cells grown under 30 passages in presence of (E)-4-((4-((4-(4-(2-Cyanovinyl)-2,6-dimethylphenoxy)thieno[2,3- d]pyrimidin-2-yl)amino)piperidin-1-yl)methyl)benzenesulfonamide assessed as protection against virus-induced cytopathic effect incubated for 5 days by MTT assay; format: functional, organism-based; details: Human immunodeficiency virus 1, 3B, MT4, 120 h
[14] = system: Human immunodeficiency virus 1; assay: Antiviral activity against HIV1 3B infected in human MT4 cells grown under 30 passages in presence of 4-[[4-[[4-(4-cyano-2,6-dimethylphenoxy)thieno[3,2-d]pyrimidin-2-yl]amino]-1-piperidyl]methyl]benzenesulfonamide assessed as protection against virus-induced cytopathic effect incubated for 5 days by MTT assay; format: functional, organism-based; details: Human immunodeficiency virus 1, 3B, MT4, 120 h
[15] = system: Human immunodeficiency virus 1; assay: Antiviral activity against HIV1 3B infected in human MT4 cells grown under 30 passages in presence of 4-[[4-[[4-[4-[2-cyanovinyl]-2,6-dimethylphenoxy]thieno[3,2-d]pyrimidin-2-yl]amino]-1-piperidyl]methyl]benzenesulfonamide assessed as protection against virus-induced cytopathic effect incubated for 5 days by MTT assay; format: functional, organism-based; details: Human immunodeficiency virus 1, 3B, MT4, 120 h
[16] = system: Human immunodeficiency virus 1; assay: Resistance index, ratio of EC50 for antiviral activity against HIV1 3B infected in human MT4 cells grown under 30 passages in presence of (E)-4-((4-((4-(4-(2-Cyanovinyl)-2,6-dimethylphenoxy)thieno[2,3- d]pyrimidin-2-yl)amino)piperidin-1-yl)methyl)benzenesulfonamide to EC50 for antiviral activity against HIV1 3B infected in human MT4 cells; format: functional
[17] = system: Human immunodeficiency virus 1; assay: Resistance index, ratio of EC50 for antiviral activity against HIV1 3B infected in human MT4 cells grown under 30 passages in presence of 4-[[4-[[4-(4-cyano-2,6-dimethylphenoxy)thieno[3,2-d]pyrimidin-2-yl]amino]-1-piperidyl]methyl]benzenesulfonamide to EC50 for antiviral activity against HIV1 3B infected in human MT4 cells; format: functional
[18] = system: Human immunodeficiency virus 1; assay: Resistance index, ratio of EC50 for antiviral activity against HIV1 3B infected in human MT4 cells grown under 30 passages in presence of 4-[[4-[[4-[4-[2-cyanovinyl]-2,6-dimethylphenoxy]thieno[3,2-d]pyrimidin-2-yl]amino]-1-piperidyl]methyl]benzenesulfonamide to EC50 for antiviral activity against HIV1 3B infected in human MT4 cells; format: functional
[19] = molecular target: Human immunodeficiency virus type 1 reverse transcriptase (Human immunodeficiency virus 1, UniProt Q72547); assay: Inhibition of HIV1 RT in presence of reconstituted template and viral nucleotides [digoxigenin (DIG)-dUTP, biotin-dUTP and dTTP] incubated for 1 hr by ELISA method
[20] = molecular target: Human immunodeficiency virus type 1 reverse transcriptase (Human immunodeficiency virus 1, UniProt Q72547, L100I); assay: Inhibition of HIV1 RT L100I mutant in presence of reconstituted template and viral nucleotides [digoxigenin (DIG)-dUTP, biotin-dUTP and dTTP] incubated for 1 hr by ELISA method
[21] = molecular target: Human immunodeficiency virus type 1 reverse transcriptase (Human immunodeficiency virus 1, UniProt Q72547, K103N); assay: Inhibition of HIV1 RT K103N mutant in presence of reconstituted template and viral nucleotides [digoxigenin (DIG)-dUTP, biotin-dUTP and dTTP] incubated for 1 hr by ELISA method
[22] = molecular target: Human immunodeficiency virus type 1 reverse transcriptase (Human immunodeficiency virus 1, UniProt Q72547, Y181C); assay: Inhibition of HIV1 RT Y181C mutant in presence of reconstituted template and viral nucleotides [digoxigenin (DIG)-dUTP, biotin-dUTP and dTTP] incubated for 1 hr by ELISA method
[23] = molecular target: Human immunodeficiency virus type 1 reverse transcriptase (Human immunodeficiency virus 1, UniProt Q72547, Y188L); assay: Inhibition of HIV1 RT Y188L mutant in presence of reconstituted template and viral nucleotides [digoxigenin (DIG)-dUTP, biotin-dUTP and dTTP] incubated for 1 hr by ELISA method
[24] = molecular target: Human immunodeficiency virus type 1 reverse transcriptase (Human immunodeficiency virus 1, UniProt Q72547, E138K); assay: Inhibition of HIV1 RT E138K mutant in presence of reconstituted template and viral nucleotides [digoxigenin (DIG)-dUTP, biotin-dUTP and dTTP] incubated for 1 hr by ELISA method
[25] = molecular target: Human immunodeficiency virus type 1 reverse transcriptase (Human immunodeficiency virus 1, UniProt Q72547, K103N/Y181C); assay: Inhibition of HIV1 RT K103N/Y181C mutant in presence of reconstituted template and viral nucleotides [digoxigenin (DIG)-dUTP, biotin-dUTP and dTTP] incubated for 1 hr by ELISA method
[26] = Aqueous solubility of the compound in pH 7 buffer; format: physicochemical
[27] = Solubility of the compound in pH 7.4 buffer by HPLC analysis
[28] = Solubility of the compound in pH 7.0 buffer by HPLC analysis
[29] = Solubility of the compound in pH 2.0 buffer by HPLC analysis

Compound: CCOC(=O)c1ccc(CN2CCC(Nc3nc(Oc4c(C)cc(/C=C/C#N)cc4C)c4ccsc4n3)CC2)cc1
- EC50 [1]: 153 nM
- EC50 [2]: 10.6 nM
- CC50 [3]: 111 µM
- selectivity ratio [4]: 10500
- selectivity ratio [5]: 728
- EC50 [6]: 19.4 nM
- EC50 [7]: 12 nM
- EC50 [8]: 30.9 nM
- EC50 [9]: 120 nM
- EC50 [10]: 33.1 nM
- EC50 [11]: 32.1 nM

Compound: C[C@H](Cn1cnc2c(N)ncnc21)OCP(=O)(O)O [TENOFOVIR ANHYDROUS]
- EC50 [12]: 4140 nM
- EC50 [13]: 2170 nM
- EC50 [14]: 3760 nM
- EC50 [15]: 3310 nM
- Ratio EC50 [16]: 0.5
- Ratio EC50 [17]: 0.9
- Ratio EC50 [18]: 0.8

Compound: Cc1cc(/C=C/C#N)cc(C)c1Oc1nc(NC2CCN(Cc3ccc(C(N)=O)cc3)CC2)nc2sccc12
- EC50 [1]: 66.9 nM
- EC50 [2]: 5.92 nM
- CC50 [3]: 3.54 µM
- selectivity ratio [4]: 597
- selectivity ratio [5]: 53
- EC50 [6]: 6.11 nM
- EC50 [7]: 4.99 nM
- EC50 [8]: 12.8 nM
- EC50 [9]: 27.1 nM
- EC50 [10]: 9.24 nM
- EC50 [11]: 15.1 nM

Compound: Cc1cc(/C=C/C#N)cc(C)c1Oc1nc(NC2CCN(Cc3cccc(C(N)=O)c3)CC2)nc2sccc12
- EC50 [1]: 62 nM
- EC50 [2]: 5.73 nM
- CC50 [3]: 3.95 µM
- selectivity ratio [4]: 689
- selectivity ratio [5]: 64
- EC50 [6]: 5.75 nM
- EC50 [7]: 5.45 nM
- EC50 [8]: 17.7 nM
- EC50 [9]: 39.5 nM
- EC50 [10]: 18.4 nM
- EC50 [11]: 12.2 nM

Compound: Cc1cc(/C=C/C#N)cc(C)c1Oc1nc(NC2CCN(Cc3ccc(F)cc3)CC2)nc2sccc12
- EC50 [1]: 150 nM
- EC50 [2]: 19.7 nM
- CC50 [3]: 5.84 µM
- selectivity ratio [4]: 279
- selectivity ratio [5]: 39
- EC50 [6]: 30.4 nM
- EC50 [7]: 22.6 nM
- EC50 [8]: 36.3 nM
- EC50 [9]: 152 nM
- EC50 [10]: 123 nM
- EC50 [11]: 127 nM

Compound: Cc1cc(C#N)cc(C)c1Oc1nc(NC2CCN(Cc3ccc(S(N)(=O)=O)cc3)CC2)nc2ccsc12
- EC50 [12]: 1.1 nM
- EC50 [13]: > 36400 nM
- EC50 [14]: > 36400 nM
- EC50 [15]: > 36400 nM
- IC50 [19]: 76 nM
- IC50 [20]: 92 nM
- IC50 [21]: 162 nM
- IC50 [22]: 126 nM
- IC50 [23]: 215 nM
- IC50 [24]: 200 nM
- IC50 [25]: 71 nM

Compound: Cc1ccnc2c1NC(=O)c1cccnc1N2C1CC1 [NEVIRAPINE]
- EC50 [12]: 87.9 nM
- EC50 [13]: 3760 nM
- EC50 [14]: > 9510 nM
- EC50 [15]: > 9510 nM
- Ratio EC50 [16]: 43
- Ratio EC50 [17]: >108
- Ratio EC50 [18]: >108

Compound: Cc1cn([C@H]2C[C@H](N=[N+]=[N-])[C@@H](CO)O2)c(=O)[nH]c1=O [ZIDOVUDINE]
- EC50 [12]: 12.7 nM
- EC50 [13]: 1 nM
- EC50 [14]: 5.1 nM
- EC50 [15]: 4.9 nM
- Ratio EC50 [16]: 0.1
- Ratio EC50 [17]: 0.4
- Ratio EC50 [18]: 0.4

Compound: Cc1cc(C#N)cc(C)c1Oc1nc(Nc2ccc(C#N)cc2)nc(N)c1Br [ETRAVIRINE]
- EC50 [6]: 5.38 nM
- EC50 [7]: 2.35 nM
- EC50 [8]: 15.7 nM
- EC50 [9]: 20.5 nM
- EC50 [13]: 1240 nM
- EC50 [14]: 530 nM
- EC50 [15]: 370 nM
- solubility [26]: < 1 µg/mL
- solubility [27]: < 1 µg/mL
- solubility [28]: < 1 µg/mL
- solubility [29]: 127 µg/mL (≈ 292 µM)

Compound: Cc1cc(/C=C/C#N)cc(C)c1Oc1nc(NC2CCN(Cc3ccc(S(N)(=O)=O)cc3)CC2)nc2ccsc12
- EC50 [13]: > 5530 nM
- EC50 [14]: 860 nM
- EC50 [15]: 1220 nM
- IC50 [19]: 101 nM
- IC50 [20]: 99 nM
- IC50 [21]: 191 nM
- IC50 [22]: 149 nM
- IC50 [23]: 301 nM
- IC50 [24]: 350 nM
- IC50 [25]: 107 nM

Compound: Cc1cc(/C=C/C#N)cc(C)c1Oc1nc(NC2CCN(Cc3ccc(C#N)cc3)CC2)nc2sccc12
- EC50 [1]: 138 nM
- EC50 [2]: 12.4 nM
- CC50 [3]: 7.74 µM
- selectivity ratio [4]: 625
- selectivity ratio [5]: 56
- EC50 [6]: 21.3 nM
- EC50 [7]: 17.3 nM
- EC50 [8]: 32.8 nM
- EC50 [9]: 117 nM
- EC50 [10]: 36.3 nM
- EC50 [11]: 32.6 nM

Compound: Cc1cc(/C=C/C#N)cc(C)c1Nc1ccnc(Nc2ccc(C#N)cc2)n1 [RILPIVIRINE]
- EC50 [13]: > 3870 nM
- EC50 [14]: 90 nM
- EC50 [15]: 60 nM
- solubility [27]: < 1 µg/mL
- solubility [28]: < 1 µg/mL
- solubility [29]: 103 µg/mL (≈ 281 µM)
